# Measurements as given in paper PMC7125202, “Targeting of radioactive platinum-bisphosphonate anticancer drugs to bone of high metabolic activity” (Scientific Reports, 2020).
# Experiments:
# [1] = Body weight, behaviour and toxicity of mice after injection of radioactive Pt-species; type: in vivo, C57BL/6N mice; details: for body weight and behavioral changes: 11.2 ± 0.4 MBq 195mPt i.v., first 3 days p.i. for 195mPt(NO3)2(en)
# Method: All in vivo work was conducted in accordance with ISO standards and the principles set forth by the Revised Dutch Act on Animal Experimentation. The in vivo experiments were approved by the institutional Animal Welfare Committee of the Radboud University Medical Center (Radboudumc), Nijmegen, the Netherlands. For both the experiment, 10 male C57Bl/6N mice (Charles River), with an average weight of ~25 g and an age of approximately 6–8 weeks were housed in filter-topped cages (5 mice per cage) under non-sterile standard conditions provided with standard animal food and water ad libitum. The mice were allowed to adapt to laboratory conditions for 1 week before experimental use. The humane end point were defined as follows, body weight gain of> 20% within 10 days, no water or food intake, weight loss of >15% within 1–2 days or> 20% of normal body weight of that animal, serious circulatory or respiratory problems, behavioural changes (hyperactivity, passive, auto-mutilation), and morbidities such as impaired mobility or lethargy.
# The ^195mPt-BP and ^195mPt(NO3)2(en) complexes were reconstituted in sterile saline solution (0.9% NaCl) and administered intravenously in the tail vein of C57BL/6N mice (n = 5 per each platinum complex). All mice received an intravenous injection with a dose of 11.2 ± 0.4 MBq ^195mPt. Immediately after injection and 1, 3, and 7 days after injection, images were acquired with U-SPECT-II/CT(MILabs) as reported previously[54],[55]. Mice were scanned under general anesthesia (isoflurane/O2) for 15 to 60 minutes using the 1.0-mm diameter pinhole mouse high sensitivity collimator tube, followed by a CT scan (spatial resolution […], 65 kV, […]) for anatomical reference. Scans were reconstructed with MILabs reconstruction software using an ordered-subset expectation maximization algorithm, with a voxel size of 0.4 mm. SPECT/CT scans were analyzed and maximum intensity projections were created using the Inveon Research Workplace software (IRW, version 4.1). A 3D volume of interest was drawn using CT threshold to differentiate soft tissue from skeletal tissue and uptake was quantified as the percentage injected dose per gram (%ID/g), assuming a tissue density of 1 g/cm^3. The hot spot in the skeletal tissue region of interest (ROI) was chosen with the location of the edge of the ROI contour representing 75% of maximum intensity. […] After euthanizing the animals, blood (approximately 600 mg per mouse), liver, spleen, kidneys, heart, lungs, and bones (femur, humerus, tibia, and spine) were harvested and analyzed with a gamma counter (1470 Wizard, Perkin Elmer).
# [2] = In vivo biodistribution of radioactive Pt-species, excised tissues by gamma counting; design: species or system C57BL/6N mice; details: 11.2 MBq i.v.
# Text: (§1) The ^195mPt-BP and ^195mPt(NO3)2(en) complexes were reconstituted in sterile saline solution (0.9% NaCl) and administered intravenously in the tail vein of C57BL/6N mice (n = 5 per each platinum complex). All mice received an intravenous injection with a dose of 11.2 ± 0.4 MBq ^195mPt. Immediately after injection and 1, 3, and 7 days after injection, images were acquired with U-SPECT-II/CT(MILabs) as reported previously[54],[55]. Mice were scanned under general anesthesia (isoflurane/O2) for 15 to 60 minutes using the 1.0-mm diameter pinhole mouse high sensitivity collimator tube, followed by a CT scan (spatial resolution […], 65 kV, […]) for anatomical reference. Scans were reconstructed with MILabs reconstruction software using an ordered-subset expectation maximization algorithm, with a voxel size of 0.4 mm. SPECT/CT scans were analyzed and maximum intensity projections were created using the Inveon Research Workplace software (IRW, version 4.1). A 3D volume of interest was drawn using CT threshold to differentiate soft tissue from skeletal tissue and uptake was quantified as the percentage injected dose per gram (%ID/g), assuming a tissue density of 1 g/cm^3. The hot spot in the skeletal tissue region of interest (ROI) was chosen with the location of the edge of the ROI contour representing 75% of maximum intensity. The mice from ^195mPt(NO3)2(en) group were euthanized with CO2 after 3 days due to excessive loss of body weight, whereas mice from treated with ^195mPt-BP were sacrificed at the end of experiments. After euthanizing the animals, blood (approximately 600 mg per mouse), liver, spleen, kidneys, heart, lungs, and bones (femur, humerus, tibia, and spine) were harvested and analyzed with a gamma counter (1470 Wizard, Perkin Elmer).
# [3] = micro-SPECT/CT quantification of 195mPt biodistribution; type: in vivo, C57BL/6N mice
# Text: as §1
# [4] = Laser ablation ICP-MS imaging of Pt co-localization with calcium in mice tibia; type: in vivo; details: proximal tibia sections; for percentage of Pt co-localized with calcium: LA-ICP-MS
# Method: The experimental procedure was carried out as reported previously. The mice tibias were incubated in neutral buffered formaldehyde for 36 h. Later, tibias were dehydrated in ascending grades of 70% to 100% ethanol and embedded in poly(methyl methacrylate) (pMMA) resin, freshly prepared by mixing 600 mL of methyl methacrylate monomer (Acros Organics BVBA, Geel, Belgium), 60 ml dibutyl phthalate (Merck KGaA, Darmstadt, Germany) and 1.25 g perkadox®16 (Aldrich, Netherlands). The polymerization was followed by cutting serial horizontal sections (perpendicular to the tibia sample) of 5 µm thickness within the trabecular region of interest using an RM2155 microtome with a TC 65 blade (Leica Microsystems GmbH, Wetzlar, Germany). Microscopic images were obtained using an inverted fluorescence/bright field microscope (BZ-9000, Keyence Deutschland GmbH, Neu-Isenburg, Germany). For image recording and processing, the software BZ-II Viewer and BZ-II Analyzer were used, respectively. To calculate the percentage of platinum co-localized with calcium, the background of the image and all pixels without hard bone tissue were excluded from the calculations. A pixel is considered to be background if its calcium intensity is below 15%. The platinum concentrations of the remaining pixels were then added up and divided by the sum of the entire platinum image to yield the percentage of platinum co-localized with calcium.
# Ehrlich solid carcinoma = system: Ehrlich solid carcinoma; design: method as in doi:10.1007/s10967-015-4053-1; details: cited from earlier work
# genomic DNA = test: Pt-DNA adducts quantification using High Resolution ICP-MS; type: in vivo, C57Bl/6N mice; details: 24 h after i.v. injection
# Text: The remaining half of the tissues from all mice were dissected and weighed for DNA extraction. DNA was isolated using DNeasy Blood & Tissue Kit (Qiagen, USA) for soft tissue and ChargeSwitch® gDNA Plant Kit (Thermofisher, USA) for bone samples. The DNA was digested with DNase I Solution (Thermofisher, USA) and filtered using 0.2 µm acrodisc GHP before analysis for Pt content using high resolution-ICP-MS (Element2, Thermo Finnigan). The detection limit for determining the platinum concentration was 2 ng/l. The standard solutions were prepared from 1000 mg·1^−1 platinum ICP standard Certipur (1.70341.0100, Merck) ranging from 5 ppt to 10 ppb. The selected isotopes for platinum were ^194Pt and ^195Pt. Furthermore, thallium (Tl) was added as an internal standard and determined at a molecular mass of 205 Da, which was prepared using a 1000 mg·1^−1 thallium standard (CGTL-1, Inorganic Ventures) to correct for matrix effects and long-term fluctuations of the analytical signal. The Pt-DNA adduct concentration is represented as percentage of Pt involved in adduct formation to the total amount of Pt accumulated in the specific tissue.
# [5] = In vivo biodistribution of cold Pt-species, Pt quantified by ICP-MS; design: species or system C57Bl/6N mice; details: 24 h after i.v. injection, 2.5 mM Pt
# Method: The Pt-BP and Pt(NO3)2(en) complexes were administered intravenously in the tail vein of C57BL/6N mice (n = 5 per each platinum complex). Sterile saline solution (0.9% NaCl) was used to dissolve platinum complexes. The concentration of injected Pt-BP or Pt(NO3)2(en) solutions was 2.5 mM platinum, calculated based on the maximum tolerated dose for cisplatin of 6 mg per kg body weight of the mice[37]. The mice were euthanized with CO2 24 h after injection, after which blood (approximately 600 mg per mouse), liver, spleen, kidneys, heart, lungs, and bones (femur, humerus, tibia, and spine) were harvested. Approximately half of the tissues were prepared for inductively coupled plasma-mass spectrometry (ICP-MS) analysis by digestion in 65% (v/v) nitric acid at 75 °C for approximately three days until the tissues were digested completely. Each tissue was cut into three samples and the samples were weighed prior to digestion in nitric acid. The digested solutions were diluted with up to 6 ml of Milli-Q water to obtain 2% (v/v) nitric acid in order to measure platinum concentrations by ICP-MS (X series I, Thermo Electron Corporation). The detection limit for determining platinum concentration with ICP-MS was 1 ppb. The standard solutions were prepared from 1000 mg·1^−1 platinum ICP standard Certipur (1.70341.0100, Merck) ranging from 1 ppb to 2500 ppb. The measured isotopes for platinum were ^194Pt, ^195Pt, ^196Pt, and ^198Pt. Furthermore, scandium (^45Sc) was added as an internal standard, which was prepared with 1000 mg·1^−1 scandium standard Certipur (1.19513.0100, Merck) to correct for matrix effects and long-term fluctuations of the measurement signal. The platinum concentrations in the various tissues were calculated relative to 1 mg of the specific tissue and represented as ng Pt/mgtissue. Three replicates of Pt-BP and Pt(NO3)2(en) solutions with volumes and platinum concentrations identical to the solutions injected to the mice (200 µl and 2.5 mM platinum, respectively) were also analyzed for their platinum content using ICP-MS as control. The percentage of injected dose (%ID) of Pt-BP and Pt(NO3)2(en) in each mouse tissue 24 h after injection was calculated by dividing the total amount of platinum per tissue through the total amount of platinum detected in the control solutions[52].
# [6] = Whole-body 195mPt radioactivity in mice measured using an ionization chamber; type: in vivo; details: day 7
# Text: Figure S3. ^195mPt radioactivity in mice. Percentage of injected dose (%ID) of ^195mPt-BP and ^195mPt(NO3)2(en) in mice, measured using an ionization chamber. ** P < 0.01; ****P < 0.0001 as determined by two-way ANOVA with a Bonferroni (multiple comparisons) post-hoc test.
# zebrafish embryos = test: Phenotypic assessment of drug-treated zebrafish embryos; type: in vivo, zebrafish (Danio rerio); details: Pt-BP 5-100 µM, cisplatin 30 µM
# Method: The zebrafish (Danio rerio) strains were kept under standard conditions (28 °C in E3 buffer) until 48 hours post fertilization (hpf) as described previously. All animal experiments were conducted at larval stages before the point of independent feeding and were in agreement with the animal protection law (Tierschutzgesetz).
# 48 hpf wildtype embryos were separated into 6 groups (n = 20 embryos/group), i.e., control (untreated) and embryos treated with 5 µM, 10 µM, 50 µM, and 100 µM Pt-BP as well as 30 µM cisplatin. Both types of compounds were added externally to the medium and the embryos were incubated at 33 °C for the duration of the experiment. The embryos were assessed each day for phenotypic toxicity until 2 days post treatment (48 hpt) and imaged live in an Olympus MVX10 microscope.
# [7] = design: method as in PMID 29037232; details: cited from earlier work
smiles,measurement,setting,value
"NCCN.O=[N+]([O-])[O-].O=[N+]([O-])[O-].[195Pt+2] [^195mPt(NO3)2(en), reference compound]",body weight and behavioral changes,[1],significant body weight loss
same,weight loss,"[1]; humane end point, euthanized after 3 days",more than 20%
same,"uptake in bones (femur, tibia, humerus)",[2]; gamma counting after 3 days,1.4 ± 0.15 %ID/g
same,uptake in kidneys,[2]; gamma counting after 3 days,3.95 ± 0.24 %ID/g
same,uptake in liver,[2]; gamma counting after 3 days,3.22 ± 0.28 %ID/g
same,uptake in lungs,[2]; gamma counting after 3 days,1.08 ± 0.16 %ID/g
same,uptake in spleen,[2]; gamma counting after 3 days,2.76 ± 0.67 %ID/g
same,hard-to-soft tissue uptake ratio,"[3]; 1 h, excluding bladder uptake",1
same,hard-to-soft tissue uptake ratio,[3]; 24 h,1.2
same,hard-to-soft tissue uptake ratio,[3]; 72 h,1.2
same,uptake in bone (hard tissue),"[3]; micro-SPECT/CT, 1 h p.i.",1.5 ± 0.1 %I.D/g
same,uptake in soft tissue,"[3]; micro-SPECT/CT, 1 h p.i.",1.43 ± 0.21 %I.D/g
same,Pt not co-localized with Ca (Pt in soft tissue of the proximal tibia),[4]; Fig. 4C,10%
same,percentage of Pt co-localized with calcium,[4],37.3%
same,co-localization of Pt with Ca relative to that of 195mPt-BP,"[4]; total amount of Pt, Fig. 4C",27%
N.N.[Cl][Pt][Cl] [^195mPt-cisplatin],"inhibition of tumor growth, more effective compared to non-radioactive cisplatin",Ehrlich solid carcinoma,30%
"NCCN.O=[N+]([O-])[O-].O=[N+]([O-])[O-].[Pt+2] [Pt(NO3)2(en), reference compound]","Pt-DNA adduct formation relative to total Pt uptake, kidney",genomic DNA,4.8%
same,"Pt-DNA adduct formation relative to total Pt uptake, spleen",genomic DNA,9.8%
same,Pt uptake in hard tissue,[5],2.69 ± 0.26 %ID/g
same,Pt uptake in kidney,[5],3.38 ± 0.28 %ID/g
same,Pt uptake in liver,[5],1.54 ± 0.33 %ID/g
same,Pt uptake in spleen,[5],0.38 ± 0.04 %ID/g
same,Pt accumulation in hard tissue (bone),[5]; normalized for tissue weight,~ 1 ng Pt/mg tissue
NCCN.NCCN.O.O.O.O=S(=O)([O-])O.[NH3+]CC1(O)P2(=O)[O][195Pt][O]P1(=O)[O][195Pt][O]2 (stereo not drawn) [^195mPt-BP],body weight and behavioral changes,[1],no behavioral or body changes were observed
same,Pt-based toxicity,[1]; over a period of 7 days,did not observe any Pt-based toxicity
same,uptake in femur,[2]; gamma counting after 7 days,3.1 ± 0.37 %ID/g
same,uptake in humerus,[2]; gamma counting after 7 days,2.53 ± 0.33 %ID/g
same,uptake in kidneys,[2]; gamma counting after 7 days,0.43 ± 0.16 %ID/g
same,uptake in soft tissues except kidneys,[2]; gamma counting after 7 days,< 0.11 %ID/g
same,uptake in tibia,[2]; gamma counting after 7 days,2.86 ± 0.46 %ID/g
same,whole-body radioactivity,[6],2 %ID
same,hard-to-soft tissue uptake ratio,"[3]; 1 h, excluding bladder uptake",3.3
same,hard-to-soft tissue uptake ratio,[3]; 24 h,6
same,hard-to-soft tissue uptake ratio,[3]; 72 h,6.7
same,uptake in bone (hard tissue),"[3]; micro-SPECT/CT, 1 h p.i.",1.8 ± 0.25 %I.D/g
same,uptake in soft tissue,"[3]; micro-SPECT/CT, 1 h p.i.",0.93 ± 0.27 %I.D/g
same,uptake in soft tissue,"[3]; micro-SPECT/CT, 24 h",0.18 ± 0.03 %I.D/g
same,uptake in hot spots in bone (ROI 75% of maximum intensity) compared to 195mPt(NO3)2(en),"[3]; micro-SPECT/CT, all time points",twofold increased uptake
same,uptake in bone (hard tissue),"[3]; micro-SPECT/CT, from 24 h until day 7",1.0 ± 0.12 %I.D/g
same,Pt not co-localized with Ca (Pt in soft tissue of the proximal tibia),[4]; Fig. 4C,20%
same,accumulation of Pt in bone compared to 195mPt(NO3)2(en),[4]; Fig. 4C,almost a fourfold increased accumulation
same,percentage of Pt co-localized with calcium,[4],73.5%
N.N.[Cl][Pt][Cl] [cisplatin],visual inspection of kidneys based on size and shape,zebrafish embryos,apparent shrinkage
same,rapid weight loss followed by recovery within a week,[7]; mice at maximum tolerated dose,~ 10%
same,maximum tolerated dose,[7]; mice,6 mg/kg
